# Laboratory results from PubChem BioAssay AID2060353 (Molecular Pharmacology Branch, DTP, NCI, 2025).
# Values joined by “and” are separate entries in the source; they are usually repeats but may differ in a detail not shown here. Equal entries are not always repeated.
# Tested on: 521955-158-R2-J5-PDC spheroids with stroma, growth inhibition
# Experiment: Anticancer human tumor 521955-158-R2-J5-PDC patient-derived pancreatic carcinoma cell line growth inhibition [TAK]
# Conditions: for viability, T/C: stronger effect = lower value
# Description: Combinatorial screen of targeted agents with TAK-243 and ipatasertib in multi-cell type tumor spheroids
# A high-throughput screen of multi-cell type tumor spheroids was designed to identify active combinations of targeted small molecules and TAK-243 or ipatasertib. Complex spheroids include a stromal component modeled by human endothelial cells (HUVEC) and fibroblasts modeled by human mesenchymal stem cells (MSCs). The concentration ranges selected for each drug and investigational agent were based upon clinically achievable concentrations if the clinical Cmax of the agent was known.
# Compounds. The drugs and investigational agents: TAK-243 (785004), ipatasertib (767898), everolimus (733504), selumetinib (741078), bortezomib (756655), trametinib (758246), ixazomib (758254), vemurafenib (761431), dabrafenib (764134), sapanisertib (764658), alpelisib (765974), and copanlisib (816437), were obtained from the National Cancer Institute (NCI) Developmental Therapeutics Program Chemical Repository. The FDA-approved anticancer drug set is available from the NCI Developmental Therapeutics Program. […] The stock solutions were prepared in dimethyl sulfoxide (DMSO, Sigma-Aldrich, St. Louis, MO, cat. D2650) at 800-fold the tested concentration and stored at -70 degrees C prior to their use. All drugs and investigational agents were tested over a range starting from a high concentration at or near the clinical Cmax and decreasing in half-log increments. If the clinical Cmax for an agent had not been determined, the highest concentration tested was 10 microM.
# NCI60 Cell Culture. NCI60 cell lines were obtained from the NCI Developmental Therapeutics Program Tumor Repository. For each lot of cells, the Repository performed Applied Biosystems AmpFLSTR Identifiler testing with PCR amplification to confirm consistency with the published Identifier STR profile for each cell line. Cells were kept in continuous culture for no more than 20 passages. The optimal seeding densities for each of the cell lines at each time point assessed were determined prior to performing the concentration response studies. Briefly, the NCI60 human tumor lines were grown as monolayers in RPMI 1640 medium supplemented with 10% FBS and 2 mmol/L L-glutamine.
# An additional 2 lines were from the NCI60 cell line panel including melanomas, MALME-3M and SK-MEL-2. Pooled donor human umbilical vein endothelial cells (HUVEC, Lonza, cat. CC-2519) and human mesenchymal stem cells (hMSC, Lonza, cat. PT-2501) were purchased from Lonza (Walkersville, MD).
# PDMR cell lines were grown in complete medium (DC medium): Dulbecco's modified Eagle's medium (DMEM)/F12 supplemented with 5% fetal bovine serum (FBS), 2 mM L-glutamine, 100 U/mL penicillin and 100 µg/ml streptomycin, 0.4 µg/ml hydrocortisone, 10 ng/ml epidermal growth factor (EGF) recombinant human protein, 24 µg/mL adenine, and 0.1 mg/mL primocin. During culture from frozen stock vials, PDMR cells were cultured in the same medium containing 10 µM Y-27632 (see Table 3). The PDCs were cultured in complete DMEM/F12 media without 10 microM Y-27632 dihydrochloride for at least two passages prior to the screen. The pooled donor HUVEC and hMSC were cultured in endothelial cell growth medium 2 (PromoCell, Heidelberg, Germany, cat. C-22011) and mesenchymal stem cell growth medium 2 (PromoCell, cat. C-28009), respectively. For all experiments, HUVEC and hMSC were used at passages </=5.
# For the pre-screen, cell seeding densities were determined from a titration spanning the range from 5,000 to 313 cells per well. The mct-spheroids including 60% malignant cells, 25% HUVEC and 15% MSC dispensed as a mixture into U-bottom Ultra-Low Attachment 384-well plates (Corning, NY)
# High-throughput Drug Combination Screening.
# Prior to their inoculation into 384-well plates, malignant cells, HUVEC, and hMSC were removed from T flasks using TrypLE express (Thermo Fisher Scientific, cat. 12605036) and harvested by centrifugation for 5 min at 233 x g. […]
# [1] = curve of first compound, second compound 0.3 µM
# [2] = curve of first compound, second compound 0.949 µM
# [3] = curve of first compound, second compound 3 µM
# [4] = curve of first compound, second compound 9.49 µM
# [5] = curve of first compound, second compound 30 µM
# 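Also: spheroids exposed to drugs for seven days before readout.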
# 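For viability, T/C in this document: 100% = DMSO vehicle control viability.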
compound,measurement,setting,value
CC(C)n1nc(-c2ccc3oc(N)nc3c2)c2c(N)ncnc21,"viability, T/C",compound 0.000316 µM,107% and 99.8%
same,"viability, T/C",compound 0.001 µM,89.1% and 102%
same,"viability, T/C",compound 0.00316 µM,80.7% and 95.7%
same,"viability, T/C",compound 0.01 µM,79.8% and 95.6%
same,"viability, T/C",compound 0.0316 µM,51.6% and 63.9%
same,"viability, T/C",compound 0.1 µM,39% and 41.8%
same,IC50,curve of compound,47.2 nM and 65.2 nM
COc1c(OCCCN2CCOCC2)ccc2c3n(c(=NC(=O)c4cnc(N)nc4)nc12)CCN3 + CC(C)NCC(C(=O)N1CCN(c2ncnc3c2C(C)CC3O)CC1)c1ccc(Cl)cc1,IC50,[1],18.5 nM
same,IC50,[2],5.05 nM
same,IC50,[3],< 3.16 nM
same,IC50,[4],< 3.16 nM
same,IC50,[5],< 3.16 nM
same,"viability, T/C","second compound 0.3 µM, first compound 0.00316 µM",69.3%
same,"viability, T/C","second compound 0.3 µM, first compound 0.01 µM",60.2%
same,"viability, T/C","second compound 0.3 µM, first compound 0.0316 µM",40.2%
same,"viability, T/C","second compound 0.3 µM, first compound 0.1 µM",25.3%
same,"viability, T/C","second compound 0.3 µM, first compound 0.316 µM",7.66%
same,"viability, T/C","second compound 0.3 µM, first compound 1 µM",7.14%
same,"viability, T/C","second compound 0.949 µM, first compound 0.00316 µM",51%
same,"viability, T/C","second compound 0.949 µM, first compound 0.01 µM",48.7%
same,"viability, T/C","second compound 0.949 µM, first compound 0.0316 µM",31.4%
same,"viability, T/C","second compound 0.949 µM, first compound 0.1 µM",15.8%
same,"viability, T/C","second compound 0.949 µM, first compound 0.316 µM",8.04%
same,"viability, T/C","second compound 0.949 µM, first compound 1 µM",7.27%
same,"viability, T/C","second compound 3 µM, first compound 0.00316 µM",41%
same,"viability, T/C","second compound 3 µM, first compound 0.01 µM",28%
same,"viability, T/C","second compound 3 µM, first compound 0.0316 µM",17.3%
same,"viability, T/C","second compound 3 µM, first compound 0.1 µM",10.1%
same,"viability, T/C","second compound 3 µM, first compound 0.316 µM",7.86%
same,"viability, T/C","second compound 3 µM, first compound 1 µM",7.56%
same,"viability, T/C","second compound 9.49 µM, first compound 0.00316 µM",23.8%
same,"viability, T/C","second compound 9.49 µM, first compound 0.01 µM",16.5%
same,"viability, T/C","second compound 9.49 µM, first compound 0.0316 µM",12.8%
same,"viability, T/C","second compound 9.49 µM, first compound 0.1 µM",8.78%
same,"viability, T/C","second compound 9.49 µM, first compound 0.316 µM",7.47%
same,"viability, T/C","second compound 9.49 µM, first compound 1 µM",7.49%
same,"viability, T/C","second compound 30 µM, first compound 0.00316 µM",19.2%
same,"viability, T/C","second compound 30 µM, first compound 0.01 µM",13.1%
same,"viability, T/C","second compound 30 µM, first compound 0.0316 µM",8.7%
same,"viability, T/C","second compound 30 µM, first compound 0.1 µM",7.22%
same,"viability, T/C","second compound 30 µM, first compound 0.316 µM",6.67%
same,"viability, T/C","second compound 30 µM, first compound 1 µM",5.5%
CC(=O)Nc1cccc(-n2c(=O)n(C3CC3)c(=O)c3c(Nc4ccc(I)cc4F)n(C)c(=O)c(C)c32)c1 + CC(C)NCC(C(=O)N1CCN(c2ncnc3c2C(C)CC3O)CC1)c1ccc(Cl)cc1,IC50,[1],0.714 nM
same,IC50,[2],0.283 nM
same,IC50,[3],0.267 nM
same,IC50,[4],0.394 nM
same,IC50,[5],0.109 nM
same,"viability, T/C","second compound 0.3 µM, first compound 94.9 pM",94.6%
same,"viability, T/C","second compound 0.3 µM, first compound 0.0003 µM",67.8%
same,"viability, T/C","second compound 0.3 µM, first compound 0.000949 µM",40.3%
same,"viability, T/C","second compound 0.3 µM, first compound 0.003 µM",33.8%
same,"viability, T/C","second compound 0.3 µM, first compound 0.00949 µM",29.3%
same,"viability, T/C","second compound 0.3 µM, first compound 0.03 µM",17.7%
same,"viability, T/C","second compound 0.949 µM, first compound 94.9 pM",75.4%
same,"viability, T/C","second compound 0.949 µM, first compound 0.0003 µM",46.7%
same,"viability, T/C","second compound 0.949 µM, first compound 0.000949 µM",31.9%
same,"viability, T/C","second compound 0.949 µM, first compound 0.003 µM",19.5%
same,"viability, T/C","second compound 0.949 µM, first compound 0.00949 µM",11.9%
same,"viability, T/C","second compound 0.949 µM, first compound 0.03 µM",5.36%
same,"viability, T/C","second compound 3 µM, first compound 94.9 pM",62.6%
same,"viability, T/C","second compound 3 µM, first compound 0.0003 µM",46.9%
same,"viability, T/C","second compound 3 µM, first compound 0.000949 µM",37.6%
same,"viability, T/C","second compound 3 µM, first compound 0.003 µM",22.1%
same,"viability, T/C","second compound 3 µM, first compound 0.00949 µM",12.8%
same,"viability, T/C","second compound 3 µM, first compound 0.03 µM",4.27%
same,"viability, T/C","second compound 9.49 µM, first compound 94.9 pM",91.6%
same,"viability, T/C","second compound 9.49 µM, first compound 0.0003 µM",53.6%
same,"viability, T/C","second compound 9.49 µM, first compound 0.000949 µM",33.2%
same,"viability, T/C","second compound 9.49 µM, first compound 0.003 µM",20%
same,"viability, T/C","second compound 9.49 µM, first compound 0.00949 µM",10.8%
same,"viability, T/C","second compound 9.49 µM, first compound 0.03 µM",4.02%
same,"viability, T/C","second compound 30 µM, first compound 94.9 pM",51.5%
same,"viability, T/C","second compound 30 µM, first compound 0.0003 µM",38.6%
same,"viability, T/C","second compound 30 µM, first compound 0.000949 µM",18.3%
same,"viability, T/C","second compound 30 µM, first compound 0.003 µM",8.52%
same,"viability, T/C","second compound 30 µM, first compound 0.00949 µM",3.18%
same,"viability, T/C","second compound 30 µM, first compound 0.03 µM",0.96%
COC1CC2CCC(C)C(O)(O2)C(=O)C(=O)N2CCCCC2C(=O)OC(C(C)CC2CCC(OCCO)C(OC)C2)CC(=O)C(C)C=C(C)C(O)C(OC)C(=O)C(C)CC(C)C=CC=CC=C1C (centres undefined),"viability, T/C",compound 0.000316 µM,102% and 111%
same,"viability, T/C",compound 0.001 µM,105% and 97.8%
same,"viability, T/C",compound 0.00316 µM,90.8% and 91.6%
same,"viability, T/C",compound 0.01 µM,93.4% and 91.1%
same,"viability, T/C",compound 0.0316 µM,86.8% and 89.5%
same,"viability, T/C",compound 0.1 µM,73.8% and 66.2%
same,IC50,curve of compound,> 100 nM
